Test system: human XIST transcript
Test: XIST knock down by XIST ASOs (Table 1)
Assay type: cell-based
Design: ASO conc at max KD: unit not given here
Conditions: for % Max KD: XIST knock down, cells treated for 72 hrs with XIST ASO; for ASO conc at max KD: concentration of XIST ASO giving max KD, 72 hrs
Description: The methods include administering an inhibitor of an XIST RNA itself, e.g., an inhibitory nucleic acid targeting XIST RNA. Although in typical usage XIST refers to the human sequence and XIST to the mouse sequence, in the present application the terms are used interchangeably. The human XIST sequence is available in the ensemble database at ENSG00000229807; it is present on Chromosome X at 73,820,651-73,852,753 reverse strand (Human GRCh38.p2). The sequences of exons 1-6 are shown in SEQ ID NOs:73-79 (see FIG. 2); XIST exons correspond to 601-11972 (exon 1); 15851-15914 (exon 2); 19593-20116 (exon 3); 21957-21984 (exon 4); 22080-22288 (exon 5); and 23887-33304 (exon 6). […] The inhibitory nucleic acid targeting XIST RNA can be any inhibitory nucleic acid as described herein, and can include modifications described herein or known in the art. In some embodiments, the inhibitory nucleic acid is an antisense oligonucleotide (ASO) that targets a sequence in XIST RNA, e.g., a sequence within an XIST exon as shown in SEQ ID NO:1-45 or within the RNA sequence as set forth in NR_001564.2, preferably wherein the ASO comprises a sequence as shown in Table 1. In some embodiments, the inhibitory nucleic includes at least one locked nucleotide, e.g., is a locked nucleic acid (LNA). Table 1 provides a list of ASOs that have more than 80% XIST knock down when cells are treated for 72 hrs with the below XIST ASOs.

Substance | % Max KD | ASO conc at max KD
ASO 6R: XIST antisense oligonucleotide GGCCTTGTGTCACAAGTCTC, SEQ ID NO 6 (listed as DNA, chemistry not given here) | 99% | 100
ASO 6B: XIST antisense oligonucleotide AGAAGTCTGGCACATCTGTG, SEQ ID NO 11 (listed as DNA, chemistry not given here) | 98% | 100
ASO 5P: XIST antisense oligonucleotide GTTCAAATTTCTTGGACCTG, SEQ ID NO 34 (listed as DNA, chemistry not given here) | 88% | 20
ASO 5A: XIST antisense oligonucleotide CAAATTTCTTGGACCTGCTG, SEQ ID NO 16 (listed as DNA, chemistry not given here) | 96% | 20
ASO 5Q: XIST antisense oligonucleotide CAGATAGGAACAATGAAGAG, SEQ ID NO 30 (listed as DNA, chemistry not given here) | 89% | 100
ASO 1S: XIST antisense oligonucleotide CAGAAACCCAAGTCTAATTG, SEQ ID NO 23 (listed as DNA, chemistry not given here) | 94% | 20
ASO 1T: XIST antisense oligonucleotide AGGATGAACCATGTGGTGAT, SEQ ID NO 24 (listed as DNA, chemistry not given here) | 93% | 20
ASO 1R: XIST antisense oligonucleotide CTGTGACTACAGAAGCAATG, SEQ ID NO 22 (listed as DNA, chemistry not given here) | 94% | 100
ASO 6D: XIST antisense oligonucleotide TCAAGACTGGCCCAGGCATA, SEQ ID NO 17 (listed as DNA, chemistry not given here) | 96% | 20
ASO 6A: XIST antisense oligonucleotide TATGGCCCACAGTCTAAAGT, SEQ ID NO 1 (listed as DNA, chemistry not given here) | 99.3% | 20
ASO 1P: XIST antisense oligonucleotide TAGCTCATGCAATGCACATG, SEQ ID NO 2 (listed as DNA, chemistry not given here) | 99% | 100
ASO 6I: XIST antisense oligonucleotide GTTCTGCACCTATCAGGCAG, SEQ ID NO 25 (listed as DNA, chemistry not given here) | 93% | 20
ASO 6Q: XIST antisense oligonucleotide TCAGAAGTCTGGCACATCTG, SEQ ID NO 5 (listed as DNA, chemistry not given here) | 99% | 100
ASO 1F: XIST antisense oligonucleotide TTTAGCTCATGCAATGCACA, SEQ ID NO 9 (listed as DNA, chemistry not given here) | 98% | 20
ASO 4A: XIST antisense oligonucleotide GGTTGTTGCCCAGTGGTAGT, SEQ ID NO 35 (listed as DNA, chemistry not given here) | 84% | 20
ASO 6S: XIST antisense oligonucleotide CTGAGGATTGTTTCTGAAAG, SEQ ID NO 21 (listed as DNA, chemistry not given here) | 95% | 100
ASO 5B: XIST antisense oligonucleotide TTTCTTGGACCTGCTGAAGA, SEQ ID NO 20 (listed as DNA, chemistry not given here) | 95% | 20
ASO 1B: XIST antisense oligonucleotide GCCTGCCATATTGTCCCTGC, SEQ ID NO 14 (listed as DNA, chemistry not given here) | 96% | 20

Substance | % Max KD | ASO conc at max KD
ASO 6E: XIST antisense oligonucleotide AGTTCAGGCTGTCCCCTTGG, SEQ ID NO 26 (LNA gapmer with DNA gap, wing lengths and linkages not given here) | 92% | 20
ASO 4P: XIST antisense oligonucleotide GTTGTTGCCCAGTGGTAGTG, SEQ ID NO 33 (listed as DNA, chemistry not given here) | 88% | 100
ASO 1G: XIST antisense oligonucleotide CTGAGATCACAGACAAATGG, SEQ ID NO 19 (listed as DNA, chemistry not given here) | 95% | 20
ASO 6U: XIST antisense oligonucleotide CTTTGTCCCAGGCACAGTCA, SEQ ID NO 13 (listed as DNA, chemistry not given here) | 97% | 20
ASO 1U: XIST antisense oligonucleotide CTTACAACTGTGCACCTTGA, SEQ ID NO 15 (listed as DNA, chemistry not given here) | 96% | 100
ASO 1C: XIST antisense oligonucleotide TGAGGCACCAATACAGAGGA, SEQ ID NO 18 (listed as DNA, chemistry not given here) | 95% | 20
ASO 1E: XIST antisense oligonucleotide GAATTCCTCTTCTGCCACCT, SEQ ID NO 28 (listed as DNA, chemistry not given here) | 91% | 20
ASO 6T: XIST antisense oligonucleotide CCCACAGAAAGTAATCACCA, SEQ ID NO 31 (listed as DNA, chemistry not given here) | 89% | 20
ASO 6P: XIST antisense oligonucleotide CCAGAGTGGTAGAAGAGATA, SEQ ID NO 27 (listed as DNA, chemistry not given here) | 92% | 20
ASO 1V: XIST antisense oligonucleotide AGGACCTTATTCACATGGAA, SEQ ID NO 10 (listed as DNA, chemistry not given here) | 98% | 20
ASO 1W: XIST antisense oligonucleotide CTTAAGTAGTAGGTACTTCC, SEQ ID NO 3 (listed as DNA, chemistry not given here) | 99% | 20
ASO 4B: XIST antisense oligonucleotide CCAGGAAAGTATCTTGACAG, SEQ ID NO 32 (listed as DNA, chemistry not given here) | 88% | 100
ASO 1A: XIST antisense oligonucleotide TAGTTAGCACTCCTGCTGCT, SEQ ID NO 7 (listed as DNA, chemistry not given here) | 98% | 20
ASO 1D: XIST antisense oligonucleotide TCAGACTGTATGACTGACAT, SEQ ID NO 8 (listed as DNA, chemistry not given here) | 98% | 20
ASO 6C: XIST antisense oligonucleotide TTGGCCTTGTGTCACAAGTC, SEQ ID NO 12 (listed as DNA, chemistry not given here) | 97% | 20
ASO 1X: XIST antisense oligonucleotide ACTCAGCAGCAATGGCAAAG, SEQ ID NO 29 (listed as DNA, chemistry not given here) | 89% | 100
ASO 3P: XIST antisense oligonucleotide TAGATTAGCTGGAGCTTGGC, SEQ ID NO 4 (listed as DNA, chemistry not given here) | 99% | 100

Source: patent US20230383292A1, “TARGETING XIST AND RNA METHYLATION FOR X REACTIVATION THERAPY” (The General Hospital Corporation, priority 2020, published 2023)
